Each structure is given as a SMILES string.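 1) Cells in 96-well plates. 2) Compound, 48 h, 5 concentrations. 3) Linear interpolation between surrounding doses. 4) Unreached endpoint = highest concentration. Abbreviation: GI50, concentration required for 50% inhibition of growth.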 Active and inactive are the calls of the source. No stated cut-off is given here; in the data, active = GI50 up to about 1.1 µM and inactive = higher.

Some test systems named below: MOLT-4; SF-295; HCT-15; UACC-62; M14; NCI-H460; MDA-N; SF-268; SK-OV-3; A549; CAKI-1; Hs-578T; SW-620; 786-0; A498; BT-549; SK-MEL-5; SF-539; SR.
Assay in all cases: growth of human tumour cells (NCI), 48 h

On to `N=C(Cc1ccccc1)NCC(=O)O`, for which the GI50 in the test with MOLT-4 is > 100 µM (inactive); in the test on SF-295, > 100 µM (inactive); in the test with HCT-15, greater than 100 µM; in the test with UACC-62, > 100 µM (inactive); in the test with M14 it was > 100 µM (inactive); in the test on NCI-H460, > 100 µM (inactive). The GI50 in the test with MDA-N, in the test on SF-268, in the test on SK-OV-3, with A549, in the test on CAKI-1 and in the test on Hs-578T was > 100 µM (inactive) each time. Besides, the GI50 in the test on SW-620, with 786-0, with A498, in the test with BT-549 and in the test with SK-MEL-5 was > 100 µM (inactive) in each case.

Turning to `CC12CC(C/C1=N/O)C(C)(C)C2` (centres undefined), the GI50 in the test with SF-295, in the test on UACC-62, with M14, in the test with NCI-H460, in the test with MDA-N and in the test with SF-268 was > 100 µM (inactive) each time. In addition, the GI50 in the test with SK-OV-3, with A549, in the test with CAKI-1, in the test with Hs-578T, in the test on SW-620 and in the test with 786-0 was > 100 µM (inactive) throughout. For the same compound, the GI50 in the test on A498, in the test on SF-539, with BT-549 and in the test with SK-MEL-5 was > 100 µM (inactive) throughout.

On to `CCOC(=O)c1[nH]c2nc(SC)nc(Nc3ccccc3Cl)c2c1N`, for which the GI50 is 8.55 µM (inactive) in the test on MOLT-4; 21 µM (inactive) in the test on SF-295; 35.3 µM in the test on HCT-15; 16.6 µM (inactive) in the test on UACC-62; 37.8 µM (inactive) in the test with M14; 11.6 µM (inactive) with NCI-H460. Besides, the GI50 with MDA-N is 30.5 µM (inactive); in the test with SF-268 it was 19.8 µM (inactive); in the test on SK-OV-3, 21.4 µM (inactive); in the test on A549 it was 13.2 µM (inactive); in the test on CAKI-1 it was 25.5 µM (inactive); in the test on Hs-578T, 20.1 µM (inactive). Moreover, the GI50 in the test with SW-620 was 27.2 µM (inactive); in the test with 786-0, 20.2 µM (inactive); with A498, 12.6 µM (inactive); in the test on BT-549 it was 20 µM (inactive); in the test with SK-MEL-5 it was 6.21 µM (inactive).

With `CC1(C)OCC2OC3([C@H](O)CCO)OC(C)(C)OC3C2O1` (some centres undefined), the GI50 in the test with MOLT-4 is > 100 µM (inactive); in the test with SF-295, > 100 µM (inactive); with HCT-15, greater than 100 µM; in the test on UACC-62, > 100 µM (inactive); with M14, > 100 µM (inactive); in the test on NCI-H460, > 100 µM (inactive). The GI50 in the test on MDA-N, with SR, in the test on A549, in the test on CAKI-1, in the test on SW-620 and with 786-0 was > 100 µM (inactive) each time. The GI50 with A498, with SF-539, with BT-549 and with SK-MEL-5 was > 100 µM (inactive) each time.

Take `C[C@H](C/C=C/C(C)(C)O)[C@H]1CC[C@@]2(C)[C@@H]3CC[C@H]4C(C)(C)[C@@H](O)CC[C@@]45C[C@@]35CC[C@]12C`: the GI50 was 9.91 µM (inactive) in the test on MOLT-4; 16.6 µM (inactive) with SF-295; 17.1 µM with HCT-15; 26.1 µM (inactive) in the test with UACC-62; 17.8 µM (inactive) with M14; 23 µM (inactive) in the test on NCI-H460. Further, the GI50 with MDA-N was 34.1 µM (inactive); in the test on SF-268 it was 1.94 µM (inactive); with SK-OV-3 it was 32.1 µM (inactive); in the test with A549 it was 14.7 µM (inactive); in the test with Hs-578T, 11.2 µM (inactive); in the test with SW-620, 18.4 µM (inactive). The GI50 in the test on 786-0 was 20.9 µM (inactive); with A498 it was 21 µM (inactive); in the test on SF-539 it was 16.8 µM (inactive); with BT-549 it was 34.1 µM (inactive).

Take `C/C=C(C)/C=C/CC(C)CCC=C(C)C` (centres undefined): the GI50 was > 100 µM (inactive) in the test on MOLT-4; > 100 µM (inactive) in the test with SF-295; greater than 100 µM with HCT-15; > 100 µM (inactive) in the test with UACC-62; > 100 µM (inactive) in the test with M14; > 100 µM (inactive) in the test with NCI-H460. For the same compound, the GI50 in the test on MDA-N, with SR, with SK-OV-3, in the test with A549, in the test with CAKI-1 and with SW-620 was > 100 µM (inactive) in each case. The GI50 in the test with 786-0, in the test with A498, in the test on SF-539, in the test on BT-549 and with SK-MEL-5 was > 100 µM (inactive) in each case.

As for `c1ccc2c(c1)CC1=C(O2)c2ccccc2OC1`, the GI50 was 23.9 µM (inactive) in the test with MOLT-4; 39.1 µM (inactive) with SF-295; 25.8 µM with HCT-15; 26.2 µM (inactive) in the test with UACC-62; 38.2 µM (inactive) in the test on M14; 19.1 µM (inactive) in the test on MDA-N. The GI50 in the test on SR was 20.4 µM (inactive); with SF-268 it was 29.4 µM (inactive); with SK-OV-3, > 100 µM (inactive); in the test with A549, 47.3 µM (inactive); in the test with CAKI-1, 23.1 µM (inactive); with SW-620, 19.8 µM (inactive). In addition, the GI50 in the test on 786-0 was 16.6 µM (inactive); with A498, 61.1 µM (inactive); with SF-539, 26.3 µM (inactive); with BT-549 it was 25.1 µM (inactive); with SK-MEL-5, 22.4 µM (inactive).

`COc1cc(OCCN(C)C)c2[nH]c(C(=O)N3CC(CCl)c4c3cc(N)c3ccccc43)cc2c1` (centres undefined): the GI50 in the test with SF-295 was < 0.01 µM (active); in the test on HCT-15, less than 0.01 µM; in the test on UACC-62, < 0.01 µM (active); in the test with M14, < 0.01 µM (active); with NCI-H460, < 0.01 µM (active); with MDA-N it was < 0.01 µM (active). Further, the GI50 in the test on SF-268 is < 0.01 µM (active); in the test on SK-OV-3 it was 0.0148 µM (active); in the test with A549 it was < 0.01 µM (active); with CAKI-1, < 0.01 µM (active); in the test on Hs-578T it was < 0.01 µM (active); with SW-620, < 0.01 µM (active). Also, the GI50 in the test with 786-0 was < 0.01 µM (active); in the test on A498, < 0.01 µM (active); in the test on SF-539, < 0.01 µM (active); with BT-549, 0.0268 µM (active); in the test with SK-MEL-5, < 0.01 µM (active).

With `O=C(O)C1CCCCC1c1c2ccc(=O)cc-2oc2cc(O)ccc12` (centres undefined), the GI50 was 23.8 µM (inactive) in the test with MOLT-4; 31.7 µM (inactive) with SF-295; 34.6 µM in the test with HCT-15; 25.9 µM (inactive) in the test on UACC-62; 26.1 µM (inactive) in the test with M14; 32.4 µM (inactive) with NCI-H460. Also, the GI50 in the test with MDA-N is 21.6 µM (inactive); in the test on SF-268, 33.7 µM (inactive); in the test with SK-OV-3 it was 32.1 µM (inactive); with A549 it was 38.4 µM (inactive); in the test on CAKI-1, 31.8 µM (inactive); in the test on Hs-578T, 34.8 µM (inactive). Moreover, the GI50 was 44.9 µM (inactive) in the test with SW-620; 32.1 µM (inactive) with 786-0; 37.8 µM (inactive) with A498; 18 µM (inactive) with SF-539; 47.6 µM (inactive) with BT-549; 36.2 µM (inactive) in the test with SK-MEL-5.

Regarding `O=C(NCC1Nc2ccncc2S(=O)(=O)N1)c1ccc(Br)cc1` (centres undefined), the GI50 in the test on MOLT-4 is 46.2 µM (inactive); in the test with SF-295 it was > 100 µM (inactive); in the test on HCT-15, 42.5 µM; in the test with UACC-62, 58.7 µM (inactive); in the test with M14 it was 19.3 µM (inactive); in the test on NCI-H460, > 100 µM (inactive). Moreover, the GI50 with MDA-N is 23.7 µM (inactive); in the test with SF-268, 27.4 µM (inactive); in the test with SK-OV-3, > 100 µM (inactive); in the test with A549, > 100 µM (inactive); in the test with CAKI-1, > 100 µM (inactive); in the test with Hs-578T it was 32.2 µM (inactive). Further, the GI50 was 41.2 µM (inactive) in the test on SW-620; > 100 µM (inactive) in the test on 786-0; > 100 µM (inactive) in the test on A498; 69.7 µM (inactive) with BT-549; > 100 µM (inactive) in the test with SK-MEL-5.

As for `c1ccc2sc(C3(N4CCCC4)CCCCCC3)cc2c1`, the GI50 in the test on MOLT-4 was 12.5 µM (inactive); in the test with SF-295 it was 15 µM (inactive); with HCT-15 it was 17.5 µM; in the test on UACC-62, 16.2 µM (inactive); with M14, 14.8 µM (inactive); in the test with NCI-H460 it was 13.3 µM (inactive). In addition, the GI50 in the test on MDA-N is 15.7 µM (inactive); in the test on SR, 18.8 µM (inactive); in the test on SF-268 it was 13.5 µM (inactive); with SK-OV-3 it was 16.8 µM (inactive); in the test on A549 it was 19.6 µM (inactive); in the test with CAKI-1, 20.9 µM (inactive). For the same compound, the GI50 was 16.9 µM (inactive) in the test on SW-620; 14.1 µM (inactive) with 786-0; 16.6 µM (inactive) with A498; 19.6 µM (inactive) in the test on SF-539; 21.4 µM (inactive) in the test on BT-549; 16.6 µM (inactive) with SK-MEL-5.

For `CC(C)Oc1c(C2(c3ccccc3O)SCCCS2)c(=O)c1=O`, the GI50 with MOLT-4 was 57.5 µM (inactive); in the test with SF-295, > 100 µM (inactive); in the test with HCT-15, greater than 100 µM; in the test on UACC-62, 98.6 µM (inactive); in the test on M14, > 100 µM (inactive); with NCI-H460, > 100 µM (inactive). The GI50 with MDA-N, with SF-268, with SK-OV-3, with A549, in the test on CAKI-1 and with Hs-578T was > 100 µM (inactive) in each case. The GI50 in the test on SW-620 is > 100 µM (inactive); in the test with 786-0, > 100 µM (inactive); in the test on A498 it was 62.8 µM (inactive); in the test on SF-539 it was > 100 µM (inactive); with BT-549, 42.5 µM (inactive); in the test with SK-MEL-5, > 100 µM (inactive).
